The values that follow come from US20250320213A1, “Nitrogen-Containing Heterocyclic Compounds” (Pfizer Inc., priority 2024, published 2025).

This test has as its target T1, STAT6 (Homo sapiens, UniProt P42226).
T1 construct: stably transfected HaCaT keratinocyte cell line, which expresses NanoLuc luciferase reporter gene under the transcriptional control of the STAT6 responsive promoter; endogenous in cells; host or cells: HaCaT keratinocyte reporter cell line (stably transfected with a NanoLuc reporter)
T1 sequence (P42226 1-847): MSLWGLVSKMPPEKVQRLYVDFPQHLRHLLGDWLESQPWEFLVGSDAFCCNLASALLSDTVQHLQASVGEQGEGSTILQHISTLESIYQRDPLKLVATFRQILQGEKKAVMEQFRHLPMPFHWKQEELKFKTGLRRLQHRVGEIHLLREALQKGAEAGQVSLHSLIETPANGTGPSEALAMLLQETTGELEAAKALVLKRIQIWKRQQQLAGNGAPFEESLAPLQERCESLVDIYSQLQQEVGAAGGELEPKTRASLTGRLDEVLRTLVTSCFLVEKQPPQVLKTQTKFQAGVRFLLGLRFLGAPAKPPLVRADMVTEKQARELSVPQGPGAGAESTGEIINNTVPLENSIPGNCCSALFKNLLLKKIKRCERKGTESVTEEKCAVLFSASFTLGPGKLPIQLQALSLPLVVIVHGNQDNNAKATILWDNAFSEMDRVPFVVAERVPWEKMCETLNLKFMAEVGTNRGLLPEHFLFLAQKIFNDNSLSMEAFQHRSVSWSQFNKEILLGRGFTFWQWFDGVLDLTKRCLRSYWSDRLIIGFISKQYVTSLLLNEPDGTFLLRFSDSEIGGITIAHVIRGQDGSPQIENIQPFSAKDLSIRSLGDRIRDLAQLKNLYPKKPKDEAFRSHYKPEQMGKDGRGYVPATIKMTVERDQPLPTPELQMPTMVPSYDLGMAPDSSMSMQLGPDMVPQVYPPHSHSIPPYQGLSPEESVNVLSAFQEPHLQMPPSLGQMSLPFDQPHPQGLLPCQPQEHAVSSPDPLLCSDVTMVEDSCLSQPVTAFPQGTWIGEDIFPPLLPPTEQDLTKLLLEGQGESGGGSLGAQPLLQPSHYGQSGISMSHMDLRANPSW
Briefly: STAT6 Reporter Luciferase Assay (IL-13 stimulated HaCaT keratinocyte NanoLuc reporter cells). The note with it: IL-13 stimulated HaCaT STAT6 NanoLuc reporter cells; read-out: Reporter EC50. The format is cell-based. The procedure, abridged: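 Luminescence from a NanoLuc reporter driven by the STAT6-responsive IL-13Ra2 promoter in HaCaT keratinocytes serves as the read-out. Compounds are given 2 h before a 4 h stimulation with 0.12 nM IL-13.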
For `Cc1noc(=O)n1-c1ccc(N2Cc3c(C(=O)NCc4ccc(NC(=O)N5CCN(C)CC5)cc4)nn(C(C)C)c3[C@@H](C)C2)cc1` [Example 656, (S)-1-isopropyl-7-methyl-5-(4-(3-methyl-5-oxo-1,2,4-oxadiazol-4(5H)-yl)phenyl)-N-(4-(4-methylpiperazine-1-carboxamido)benzyl)-4,5,6,7-tetrahydro-1H-pyrazolo[4,3-c]pyridine-3-carboxamide], the EC50 turned out to be 2 nM. Take `CC(C)n1nc(C(=O)NCc2ccc(NC(=O)N3CCN(C)CC3)cc2)c2c1[C@@H](C)CN(c1ccc3c(c1)OCCN(C)C3=O)C2` [Example 657, (S)-1-isopropyl-7-methyl-5-(4-methyl-5-oxo-2,3,4,5-tetrahydrobenzo[f][1,4]oxazepin-8-yl)-N-(4-(4-methylpiperazine-1-carboxamido)benzyl)-4,5,6,7-tetrahydro-1H-pyrazolo[4,3-c]pyridine-3-carboxamide]: the EC50 is 2 nM. The value for `CC(C)n1nc(C(=O)NCc2ccc(NC(=O)N3CCN(C)CC3)cc2)c2c1[C@@H](C)CN(c1ccc(-c3nncn3C)cn1)C2` [Example 658, (S)-1-isopropyl-7-methyl-5-(5-(4-methyl-4H-1,2,4-triazol-3-yl)pyridin-2-yl)-N-(4-(4-methylpiperazine-1-carboxamido)benzyl)-4,5,6,7-tetrahydro-1H-pyrazolo[4,3-c]pyridine-3-carboxamide] was 4 nM.

In the case of `CC(C)n1nc(C(=O)NCc2ccc(NC(=O)N3CC(C)(N(C)C)C3)c(F)c2)c2c1[C@@H](C)CN(c1ccc(C(=O)N(C)C)cc1)C2` [Example 659, (S)-N-(4-(3-(dimethylamino)-3-methylazetidine-1-carboxamido)-3-fluorobenzyl)-5-(4-(dimethylcarbamoyl)phenyl)-1-isopropyl-7-methyl-4,5,6,7-tetrahydro-1H-pyrazolo[4,3-c]pyridine-3-carboxamide], the EC50 was determined as 8 nM.

Take `CC(C)n1nc(C(=O)NCc2ccc(NC(=O)N3CCC4(CCN(C)CC4)CC3)c(F)c2)c2c1[C@@H](C)CN(c1ccc(C(=O)N(C)C)cc1)C2` [Example 660, (S)-N-(4-((5-(4-(dimethylcarbamoyl)phenyl)-1-isopropyl-7-methyl-4,5,6,7-tetrahydro-1H-pyrazolo[4,3-c]pyridine-3-carboxamido)methyl)-2-fluorophenyl)-9-methyl-3,9-diazaspiro[5.5]undecane-3-carboxamide]: the EC50 came out at 4 nM. For the compound `CC(C)n1nc(C(=O)NCc2ccc(NC(=O)N(C)C)cc2)c2c1[C@@H](C)CN(c1ccc(C(=O)N(C)C[C@H]3[C@@H]4CN(C)C[C@@H]43)cc1)C2` [Example 661, (S)-N-(4-(3,3-dimethylureido)benzyl)-1-isopropyl-7-methyl-5-(4-(methyl(((1R,5S,6r)-3-methyl-3-azabicyclo[3.1.0]hexan-6-yl)methyl)carbamoyl)phenyl)-4,5,6,7-tetrahydro-1H-pyrazolo[4,3-c]pyridine-3-carboxamide], the half-maximal effective concentration (EC50) was determined as 5 nM.

As for `CC(C)n1nc(C(=O)NCc2ccc(NC(=O)N(C)C)cc2)c2c1[C@@H](C)CN(c1ccc(C(=O)N(C)CC3CCN(Cc4ccccc4)CC3)cc1)C2` [Example 662, (S)-5-(4-(((1-benzylpiperidin-4-yl)methyl)(methyl)carbamoyl)phenyl)-N-(4-(3,3-dimethylureido)benzyl)-1-isopropyl-7-methyl-4,5,6,7-tetrahydro-1H-pyrazolo[4,3-c]pyridine-3-carboxamide], the concentration giving a half-maximal response (EC50) was found to be 3 nM.

Regarding `CC(C)n1nc(C(=O)NCc2ccc(NC(=O)N3CCN(CCC(=O)O)CC3)c(F)c2)c2c1[C@@H](C)CN(c1ccc(C(=O)N(C)C)cc1)C2` [Example 669, (S)-3-(4-((4-((5-(4-(dimethylcarbamoyl)phenyl)-1-isopropyl-7-methyl-4,5,6,7-tetrahydro-1H-pyrazolo[4,3-c]pyridine-3-carboxamido)methyl)-2-fluorophenyl)carbamoyl)piperazin-1-yl)propanoic acid], the concentration giving a half-maximal response (EC50) is 201 nM. With `CC(C)n1nc(C(=O)NCc2ccc(NC(=O)N3CCN(C)CC3)cc2)c2c1[C@@H](C)CN(c1ccc(-n3ccnn3)cc1)C2` [Example 674, (S)-5-(4-(1H-1,2,3-triazol-1-yl)phenyl)-1-isopropyl-7-methyl-N-(4-(4-methylpiperazine-1-carboxamido)benzyl)-4,5,6,7-tetrahydro-1H-pyrazolo[4,3-c]pyridine-3-carboxamide], the EC50 stood at 0.2 nM. As to `CC(C)n1nc(C(=O)NCc2ccc(NC(=O)N(C)C)cc2)c2c1[C@@H](C)CN(c1ccc(C(=O)N3CCN4CCC[C@@H]4C3)cc1)C2` [Example 675, (S)-N-(4-(3,3-dimethylureido)benzyl)-1-isopropyl-7-methyl-5-(4-((R)-octahydropyrrolo[1,2-a]pyrazine-2-carbonyl)phenyl)-4,5,6,7-tetrahydro-1H-pyrazolo[4,3-c]pyridine-3-carboxamide], the EC50 was 34 nM. Consider `CC(C)n1nc(C(=O)NCc2ccc(NC(=O)N(C)C)cc2)c2c1[C@@H](C)CN(c1ccc(C(=O)N3Cc4cccnc4C3)cc1)C2` [Example 676, (S)-5-(4-(6,7-dihydro-5H-pyrrolo[3,4-b]pyridine-6-carbonyl)phenyl)-N-(4-(3,3-dimethylureido)benzyl)-1-isopropyl-7-methyl-4,5,6,7-tetrahydro-1H-pyrazolo[4,3-c]pyridine-3-carboxamide], for which the EC50 came to 0.3 nM. With `CC(C)n1nc(C(=O)NCc2ccc(NC(=O)N3CC[C@@H](N(C)C)C3)c(F)c2)c2c1[C@@H](C)CN(c1ccc(C(=O)N(C)C)cc1)C2` [Example 678, (S)-N-(4-((R)-3-(dimethylamino)pyrrolidine-1-carboxamido)-3-fluorobenzyl)-5-(4-(dimethylcarbamoyl)phenyl)-1-isopropyl-7-methyl-4,5,6,7-tetrahydro-1H-pyrazolo[4,3-c]pyridine-3-carboxamide], the 50% effective concentration (EC50) was determined as 3 nM. As for `CC(C)n1nc(C(=O)NCc2ccc(NC(=O)N3CCC(C)(N(C)C)C3)c(F)c2)c2c1[C@@H](C)CN(c1ccc(C(=O)N(C)C)cc1)C2` (stereo partly drawn) [Example 679, (7S)-N-(4-(3-(dimethylamino)-3-methylpyrrolidine-1-carboxamido)-3-fluorobenzyl)-5-(4-(dimethylcarbamoyl)phenyl)-1-isopropyl-7-methyl-4,5,6,7-tetrahydro-1H-pyrazolo[4,3-c]pyridine-3-carboxamide], the concentration giving a half-maximal response (EC50) came out at 3 nM. With `CC(C)n1nc(C(=O)NCc2ccc(NC(=O)N3CCN(C)[C@@H](C)C3)c(F)c2)c2c1[C@@H](C)CN(c1ccc(C(=O)N(C)C)cc1)C2` [Example 680, (S)-5-(4-(dimethylcarbamoyl)phenyl)-N-(4-((S)-3,4-dimethylpiperazine-1-carboxamido)-3-fluorobenzyl)-1-isopropyl-7-methyl-4,5,6,7-tetrahydro-1H-pyrazolo[4,3-c]pyridine-3-carboxamide], the EC50 was 2 nM. For `CC(C)n1nc(C(=O)NCc2ccc(NC(=O)N3CC[C@@H](CN(C)C)C3)c(F)c2)c2c1[C@@H](C)CN(c1ccc(C(=O)N(C)C)cc1)C2` [Example 681, (S)-N-(4-((S)-3-((dimethylamino)methyl)pyrrolidine-1-carboxamido)-3-fluorobenzyl)-5-(4-(dimethylcarbamoyl)phenyl)-1-isopropyl-7-methyl-4,5,6,7-tetrahydro-1H-pyrazolo[4,3-c]pyridine-3-carboxamide] the value was 3 nM.
